2 compounds from patent US20240342111A1, “ISOMER-SPECIFIC NEUROPROTECTIVE EFFECT OF NATURAL RESERVATROL” (priority 2021, published 2024) can be followed below.

Data set [1] can be described thus: Spectral analysis (absorption spectrum) of cis- and trans-RSV conformation in solution. It is filed as physicochemical. Conditions: for peak absorption: lower concentrations (≤10 μM), range 250-400 nm. The procedure: Nature 519, 370-373, doi:10.1038/nature14028 (2015). […] Mol Nutr Food Res 63, e1800715, doi:10.1002/mnfr.201800715 (2019). […] Commercially available cis- and trans-RSV were dissolved in ethanol to generate the stock solutions. […] The dilutions were done in the dark and samples were protected from light. […] Low dose trans-RSV evokes a paradoxical shift in equilibrium towards the cis conformation in solution.
Each stock was diluted 1000× in DMSO to prepare different stocks to obtain the final working solutions and micromolar concentrations to obtain the absorption spectrum. The control solution was prepared using ethanol and DMSO (0.1% ethanol). Absorption was measured using Spectramax 300R at room temperature. Stock solutions were stored at −20° C., and the working solutions were prepared fresh and protected from light during the preparation.

The subject of the next data set is Rat cortical neurons. Put plainly: MPP+ toxicity (mitochondrial inhibition), cell viability. The data set is classed as cell-based.
The test system of the next data set is Cortical neurons. Put plainly: Aβ-induced neurite degeneration (MAP2 immunostaining). The data set is classed as cell-based, rat. Conditions: for Aβ-induced neurotoxicity (neurite degeneration): pre-treated 50 μM 16 hours, then Aβ 50 nM 24 hours. How it is done:
Cells were then exposed to excitotoxic NMDA (500 μM for 5 minutes) and viability was assessed using MTT assay after 24 hours. […] Rat cortical neurons (DIV 9) were treated with NMDA (50 μM for 5 minutes) and then with cis-RSV for 24 hours. Cells were then exposed to excitotoxic NMDA (500 μM for 5 minutes) and viability was assessed using MTT assay after 24 hours. […] Cell viability was assessed after 48 hours. […] Representative images (scale bar, 20 μm) for cortical neurons following neurite degeneration (MAP2—neurite marker, magenta and DAPI—nuclear marker, blue). […] Neurons were immunoassayed with anti-MAP2 antibody and quantified for neurite degeneration. The data represents mean±SEM for n=3 experiments with significance measured using Student's paired t-test.
Amyloid Beta oligomers were prepared as described previously, see Ahmed, M. et al. Structural conversion of neurotoxic amyloid-beta (1-42) oligomers to fibrils. Nat Struct Mol Biol 17, 561-567, doi:10.1038/nsmb.1799 (2010) and Wang, X. et al. Elevated Neuronal Excitability Due to Modulation of the Voltage-Gated Sodium Channel Nav1.6 by A beta (1-42). Front Neurosci-Switz 10, doi:ARTN 94 10.3389/fnins.2016.00094 (2016). […]
Neurite degeneration index was calculated as described previously, see Jin, M. et al. Soluble amyloid beta-protein dimers isolated from Alzheimer cortex directly induce Tau hyperphosphorylation and neuritic degeneration. […] The samples to be analyzed for neurite degeneration were stained using the standard immunofluorescence procedure with MAP2 (Alexa fluor 647) for neurites and DAPI staining for the nucleus. Neurite degeneration quantification was done using 5-6 regions of interest of equal sizes from each treatment condition. […] To detect degenerated neurites, we used the particle analyzer module of ImageJ and calculated the percentage of the area of the small fragments or particles (size=3-10 μm^2) to the intact neurites (size>25 μm2) with information derived from the binary images. A degeneration index (DI) was calculated as the fragmented neurite area ratio over intact neurite area. […]

Another data set deals with RAD51. Kind of data set: Immunoblot for RAD51 levels. It is filed as cell-based, rat. Conditions: 4 hours.
A further data set relates to pSer10-H3. Put plainly: Immunostaining of pSer10-H3 (ADP-ribosylation dependent DNA repair marker). The data set is classed as cell-based, rat. Conditions: pre-treated 50 μM 16 hours, then Aβ 50 nM 24 hours. The text has this:
Ac-K56-H3 is a marker of genomic stability, see Driscoll, R., Hudson, A. & Jackson, S. P. Yeast Rtt109 promotes genome stability by acetylating histone H3 on lysine 56. Science 315, 649-652, doi:10.1126/science.1135862 (2007), and DNA damage, see Tjeertes, J. V., Miller, K. M. & Jackson, S. P. Screen for DNA-damage-responsive histone modifications identifies H3K9Ac and H3K56Ac in human cells. EMBO J 28, 1878-1889, doi:10.1038/emboj.2009.119 (2009), and inhibition of PARP1 causes the downregulation of RAD51, see Hegan, D. C. et al. Inhibition of poly(ADP-ribose) polymerase down-regulates BRCA1 and RAD51 in a pathway mediated by E2F4 and p130. Proc Natl Acad Sci U S A 107, 2201-2206, doi:10.1073/pnas.0904783107 (2010), and induces neurotoxicity, see Diaz-Hernandez, J. I., Moncada, S., Bolanos, J. P. & Almeida, A. Poly(ADP-ribose) polymerase-1 protects neurons against apoptosis induced by oxidative stress. Cell Death Differ 14, 1211-1221, doi:10.1038/sj.cdd.4402117 (2007) and Midorikawa, R., Takei, Y. & Hirokawa, N. KIF4 motor regulates activity-dependent neuronal survival by suppressing PARP-1 enzymatic activity. Cell 125, 371-383, doi:10.1016/j.cell.2006.02.039 (2006). […] The western blot images of the protein levels of HPF1 was quantified using ImageJ.
Coverslips were then mounted using DAPI (4′,6-diamidino-2-phenylindole)-supplemented mounting medium, Prolong Gold Antifade (Invitrogen) imaged with Leica DMI6000 epifluorescent microscope at 63×magnification.

In another data set the test system is tau. Kind of data set: Immunostaining of phospho-tau (pSer404-tau). It is filed as cell-based, rat. Conditions: 25 μM, 16 hours.

The structures appear in SMILES notation.

In data set [1], `Oc1ccc(/C=C\c2cc(O)cc(O)c2)cc1` [cis-RSV, cis-resveratrol] showed a specific absorption peak of 295 nm and a peak absorption of 295 nm. The conformation in solution entry in data set [1] (cis-RSV, 5-50 μM) was “retains its conformation across the different doses”. For the same compound, the “protection against MPP+ toxicity (cell viability)” value in the data set with Rat cortical neurons (10 μM MPP, pre-treatment 50 μM for 16 hours, viability after 48 hours) is recorded as “protects against MPP toxicity”. The “Aβ-induced neurotoxicity (neurite degeneration)” value in the data set with Cortical neurons was “protected against Aβtoxicity”. In the data set on RAD51 (cis-RSV 5-50 μM), the RAD51 levels entry is “upregulated it”. Moreover, the pSer10-H3 levels entry in the data set on pSer10-H3 is listed as “reduced pSer10-H3 levels”. For the same compound, the “phosphorylation level of tau (p-tau, pSer404)” value in the data set with tau was “significantly downregulated the phosphorylation level of tau (p-tau)”.

In the case of `Oc1ccc(/C=C/c2cc(O)cc(O)c2)cc1` [trans-RSV, trans-resveratrol], the specific absorption peak in data set [1] is 330 nm. The conformation in solution result in data set [1] (concentrations ≤10 μM, in DMSO, protected from light) is “exists majorly in cis-RSV conformation”; in data set [1] (high dose (≥25 μM)), “retains its trans conformation”. This compound had a peak absorption in data set [1] of 295 nm. In addition, in the data set with Rat cortical neurons (high dose 50 μM, no toxin), the neurotoxicity by itself result is on record as “neurotoxic”. For the same compound, the “neurotoxicity (neurite degeneration) by itself” value in the data set on Cortical neurons (50 μM, without Aβ) was “itself induced neurotoxicity”. For the same compound, the “Aβ-induced neurotoxicity (neurite degeneration)” value with Cortical neurons is reported as “exacerbating Aβtoxicity”. Moreover, the RAD51 levels result in the data set with RAD51 (low dose 5 μM) is “upregulated it”; with RAD51 (≥10 μM) it was “downregulated RAD51 in a dose-dependent manner”. Moreover, in the data set on pSer10-H3, the pSer10-H3 levels result is on record as “upregulation”. Also, the “phosphorylation level of tau (p-tau, pSer404)” value in the data set with tau is “significantly upregulated the level of p-tau”.
